Where two headings read alike, the source gives them in different places.

Assay [1] relates to Kelly MYCN-amplified neuroblastoma cells. Briefly: Viability at 72 hrs, CyQUANT assay. The assay is classed as cell-based. The settings on record: FIG. 1F, read-out: cellular EC50 at 72 hrs. How it is done: Neuroblastoma cells were treated for the indicated time, trypsinized, washed, stained with Dylight 800 at 0.3 μg/mL (Pierce, 46421), fixed with 1.5% PFA, and permeabilized with 100% methanol. Cells were then stained with antibodies against p-MPM2 (Millipore, 16-155), p-pan-Aurora (Cell Signaling, 2914), MYCN (Thermo, PA5-17403), rabbit IgG (Invitrogen, A10542), or mouse IgG (BioLegend, 405307). Cells were stained with DAPI at 0.3 μg/mL (Invitrogen, D21490) and analyzed on the BD LSR II flow cytometer. For cell cycle analysis, cells were stimulated with EdU for 2 hours prior to harvest, then probed using the Click-iT EdU Flow Cytometry Assay Kit (Invitrogen, C10424). Cells were stained with propidium iodide (BD, 556547) and analyzed on the BD FACSCalibur flow cytometer. Data was gated using Cytobank. For viability studies, neuroblastoma cells were plated in 96-well plates at a density of 1,000 cells/well for SHEP or 4,000 cells/well for Kelly or SK—N-BE2 cells, then incubated with indicated concentrations of drug for 72 hours at 37° C. […] CyQUANT reagent mixture (Invitrogen, C7026) was added to thawed plates, then fluorescence was measured. Alternatively, resazurin (Sigma-Aldrich, R7017) was added directly to wells following drug treatment then incubated for 4 hours at 37° C. prior to measuring fluorescence. Data was analyzed using GraphPad Prism software.

The next assay relates to phospho-histone H3. Kind of assay: Screen of Kelly MYCN-amplified cells, western blot for phospho-histone H3. It counts as cell-based. The settings on record: 1 μM, 24 hrs. As for the experimental part:
Neuroblastoma tumor cell lines were obtained from the University of California San Francisco Cell Culture Facility (Kelly, SK-N-BE2, and SH-EP). SMS-KCN, SHEP MYCN^wt and MYCN^T58A/S62A cells were obtained. All cells were grown in RPMI with 10% FBS. Neuroblastoma cells were harvested and lysed with Cell Signaling Lysis buffer+1% SDS, sonicated and supernatants boiled in LDS sample buffer (Invitrogen). Western blots were performed as described previously (Chanthery et al., 2012), with primary antibodies to MYCN (ab24193, Abcam), Histone H3, P-Histone H3 (S10), Aurora A (Cell signaling), and GAPDH (Millipore). Western blot quantitation performed with ImageJ software.
To test whether this panel of 32 putative conformation-disrupting Aurora A inhibitors would destabilize MYCN, initially Kelly MYCN-amplified neuroblastoma cells were treated with candidate inhibitors and MYCN protein was measured by western blot. Phosphorylation of Histone H3, a known substrate for Aurora A and B and a marker for mitosis, was also assessed. FIGS. 1B and 5 show decreased levels of both MYCN protein and p-Histone H3 in response to several members of the screening panel (quantitated in FIG. 1).

Another assay has as its target T1, Aurora A protein (Homo sapiens, UniProt O14965).
T1 construct: endogenous in cells; host or cells: SK-N-BE(2), SMS-KCN, Kelly neuroblastoma cells
Kind of assay: Dose response immunoblot for Aurora A protein in MYCN-amplified neuroblastoma cell lines. The assay is classed as cell-based. To be noted: across cell lines (FIGS. 1D and 7).

In the next assay the test system is A2058. Briefly: Cancer cell line profiling, Genomics of Drug Sensitivity Project.
The next assay concerns IGR-1. Described as above. The settings on record: Homo sapiens, IGR-1, read-out: CD532 EC50 (uM).
In the next assay the test system is MKN45. The description is as above.
The test system of another assay is SCC-4. Described as above. To be noted: Homo sapiens, SCC-4, read-out: CD532 EC50 (uM).
In another assay the test system is OSC-20. Described as above. The settings on record: read-out: CD532 EC50 (uM).
The next assay relates to SNU-449. The description is as above. The settings on record: Homo sapiens, SNU-449, read-out: CD532 EC50 (uM).
Another assay relates to Hep 3B2.1-7. The description is as above. To be noted: read-out: CD532 EC50 (uM).
A further assay relates to JHH-7. The assay is described as above. The settings on record: JHH7, read-out: CD532 EC50 (uM).
Another assay relates to huH-1. The description is as above. The settings on record: Homo sapiens, HuH-1, read-out: CD532 EC50 (uM).
The test system of another assay is HLE. Described as above. The settings on record: Homo sapiens, read-out: CD532 EC50 (uM).
For a further assay, the system named is COLO-829. The assay is described as above. To be noted: Homo sapiens, COLO-829, read-out: CD532 EC50 (uM).
In a further assay the test system is HT-144. The assay is described as above. To be noted: Homo sapiens, HT-144, read-out: CD532 EC50 (uM).
The subject of the next assay is NB5. The assay is described as above. The settings on record: read-out: CD532 EC50 (uM).
The subject of the next assay is RF-48. The assay is described as above. The settings on record: RF48, read-out: CD532 EC50 (uM).
The subject of another assay is SK-MEL-5. The description is as above.
The next assay concerns NBsusSR. The assay is described as above. To be noted: read-out: CD532 EC50 (uM).
For a further assay, the system named is SNU-61. Described as above. The settings on record: read-out: CD532 EC50 (uM).

T1 sequence (O14965 whole entry): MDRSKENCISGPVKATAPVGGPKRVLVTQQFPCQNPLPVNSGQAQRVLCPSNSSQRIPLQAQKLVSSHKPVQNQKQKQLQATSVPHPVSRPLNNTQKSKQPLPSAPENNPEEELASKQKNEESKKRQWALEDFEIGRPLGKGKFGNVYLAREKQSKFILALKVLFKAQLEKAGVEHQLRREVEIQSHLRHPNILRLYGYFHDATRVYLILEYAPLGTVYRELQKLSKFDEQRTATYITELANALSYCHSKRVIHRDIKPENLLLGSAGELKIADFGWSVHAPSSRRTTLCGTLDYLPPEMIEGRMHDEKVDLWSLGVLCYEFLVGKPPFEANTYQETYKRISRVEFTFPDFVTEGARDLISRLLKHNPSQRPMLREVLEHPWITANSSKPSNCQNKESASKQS
Protocol for Aurora A protein: Neuroblastoma tumor cell lines were obtained from the University of California San Francisco Cell Culture Facility (Kelly, SK-N-BE2, and SH-EP). SMS-KCN, SHEP MYCN^wt and MYCN^T58A/S62A cells were obtained. All cells were grown in RPMI with 10% FBS. Neuroblastoma cells were harvested and lysed with Cell Signaling Lysis buffer+1% SDS, sonicated and supernatants boiled in LDS sample buffer (Invitrogen). […] Western blot quantitation performed with ImageJ software.

For orientation: EC50 means the midpoint of the concentration-response curve. With `O=C(Nc1ccc(Nc2nccc(Nc3cc(C4CCCC4)[nH]n3)n2)cc1)Nc1cccc(C(F)(F)F)c1` [CD532, 1-(4-((4-((5-cyclopentyl-1H-pyrazol-3-yl)amino)pyrimidin-2-yl)amino)phenyl)-3-(3-(trifluoromethyl)phenyl)urea], the EC50 in assay [1] was 147 nM; in the assay with A2058 (Homo sapiens, A2058, read-out: CD532 EC50 (uM), A2058 cell line, Skin), 0.975 µM; in the assay with A2058 (read-out: CD532 EC50, A2058 cell line, Skin), 1.09 µM; in the assay on IGR-1, 0.27 µM; with MKN45 (Homo sapiens, MKN-45, read-out: CD532 EC50 (uM), MKN45 cell line, Stomach), 0.456 µM; in the assay with MKN45 (read-out: CD532 EC50, MKN45 cell line, Stomach), 0.26 µM. The EC50 in the assay with SCC-4 turned out to be 0.884 µM; in the assay with OSC-20 it was 1.23 µM; in the assay with SNU-449, 12.1 µM; with Hep 3B2.1-7, 0.877 µM; in the assay with JHH-7, 0.766 µM; in the assay with huH-1, 1.38 µM. For the same compound, the 50% effective concentration (EC50) with HLE is 0.567 µM; with COLO-829, 0.796 µM; with HT-144 it was 0.366 µM; in the assay with NB5, 0.761 µM; in the assay on RF-48 it was 0.903 µM; in the assay with SK-MEL-5 (Homo sapiens, SK-MEL-5, read-out: CD532 EC50 (uM), SK-MEL-5 cell line, Skin), 0.525 µM. The EC50 with SK-MEL-5 (read-out: CD532 EC50, SK-MEL-5 cell line, Skin) came out at 0.366 µM; with NBsusSR, 0.382 µM; in the assay on SNU-61 it was 1.02 µM. Also, the “p-Histone H3 level” value in the assay on phospho-histone H3 is “decreased levels of both MYCN and p-Histone H3 proteins”. In addition, the “Aurora A protein level” value at Aurora A protein is given as “downregulated Aurora A protein across cell lines (at higher concentrations)”.
